In paper PMC3445454, “Broad and Cross-Clade CD4^+ T-Cell Responses Elicited by a DNA Vaccine Encoding Highly Conserved and Promiscuous HIV-1 M-Group Consensus Peptides” (PLoS ONE, 2012):
Substitutions are numbered along the chain they refer to. Like-named read-outs stand apart in the source and are kept apart here. Ends that are not written are not given here.

Tests used:
Experiment in all cases: biochemical
Assay type in all cases: binding
HLA-DR DRB1*03:01 = HLA-DR DRB1*03:01 (Homo sapiens, UniProt P01903+P01911, A100K/A102G/A103R/A169T/F55Y/I96L/K41T/L162R/M171V/P40S/Q125H/Q178H/Q39Y/R42S/S66N/T106N/T262R/W38E/Y61H)
HLA-DR DRB1*04:05 = HLA-DR DRB1*04:05 (Homo sapiens, UniProt P01903+P01911, A100R/A169T/D86S/F76Y/I96L/K127E/L162R/M171V/N62H/P40V/Q125Y/R42H/S133A/S149N/S66Y/V115G/V209L/W38E)
HLA-DR DRB1*09:01 = HLA-DR DRB1*09:01 (Homo sapiens, UniProt P01903+P01911, A100R/A103E/D57H/D86V/F55Y/F60I/F76Y/I96F/K127E/L162R/M171V/P40D/Q125H/Q99R/R33Q/R42F/S133A/S66N/T210M/V115G/W38K/Y107V/Y59G/Y89S)
HLA-DR DRB1*11:01 = HLA-DR DRB1*11:01 (Homo sapiens, UniProt P01903+P01911, A100R/A169T/A87E/I96F/K41T/L162R/M171V/P40S/Q125H/Q178H/Q39Y/Q99D/R42S/S66Y/T262R/V115G/W38E)
HLA-DR DRB1*13:02 = HLA-DR DRB1*13:02 (Homo sapiens, UniProt P01903+P01911, A100E/A169T/K41T/L162R/M171V/P40S/Q125H/Q178H/Q39Y/Q99D/R42S/S66N/T262R/V115G/W38E/Y61H)
HLA-DR DRB1*15:01 = HLA-DR DRB1*15:01 (Homo sapiens, UniProt P01903+P01911)
HLA-DR DRB3*01:01 = HLA-DR DRB3*01:01 (Homo sapiens, UniProt P01903+P79483); details: read-out: Binding capacity/IC50 (nM) DRB3*01:01
HLA-DR DRB3*02:02 = HLA-DR DRB3*02:02 (Homo sapiens, UniProt P01903+P79483, A212P/D57E/F66Y/L67A/R103Q/R218S/R40L/S89Y/T80R/V86D/Y55F/Y59H); details: read-out: Binding capacity/IC50 (nM) DRB3*02:02
HLA-DR DRB5*01:01 = HLA-DR DRB5*01:01 (Homo sapiens, UniProt P01903+Q30154)
[1] = target: T1, HLA-DP DPA1*01:03/DPB1*02:01 (Homo sapiens, UniProt P04440+P20036, A65V/A84D/A85E/K98E)
T1 sequence (P20036 29-260): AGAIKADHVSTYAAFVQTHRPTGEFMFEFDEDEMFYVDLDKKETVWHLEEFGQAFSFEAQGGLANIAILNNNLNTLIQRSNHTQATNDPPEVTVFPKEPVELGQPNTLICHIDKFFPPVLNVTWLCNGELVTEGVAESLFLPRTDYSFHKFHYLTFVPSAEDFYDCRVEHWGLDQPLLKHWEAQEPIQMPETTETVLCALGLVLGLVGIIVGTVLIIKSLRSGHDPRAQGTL
T1 sequence (P04440 30-258 A65V/A84D/A85E/K98E): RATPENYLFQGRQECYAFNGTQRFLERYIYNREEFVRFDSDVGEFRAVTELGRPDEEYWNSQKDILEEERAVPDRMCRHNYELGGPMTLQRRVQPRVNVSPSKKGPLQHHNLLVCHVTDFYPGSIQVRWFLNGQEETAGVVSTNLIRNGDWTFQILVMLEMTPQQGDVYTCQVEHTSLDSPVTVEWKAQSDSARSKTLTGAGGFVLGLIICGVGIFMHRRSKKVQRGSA

[2] = target: T2, HLA-DP DPA1*01:03/DPB1*03:01 (Homo sapiens, UniProt P04440+P20036, A65V/A84D/A85E/E86D/F38Y/G113D/G114E/G40L/I94L/L37V/M105V/M116V/P115A/R125K/T199I); details: read-out: Binding capacity/IC50 (nM) DPA1*01:03 DPB1*03:01
T2 sequence (P20036 29-260): T1 sequence (P20036 29-260)
T2 sequence (P04440 30-258 L37V/F38Y/G40L/A65V/A84D/A85E/E86D/I94L/M105V/G113D/G114E/P115A/M116V/R125K/T199I): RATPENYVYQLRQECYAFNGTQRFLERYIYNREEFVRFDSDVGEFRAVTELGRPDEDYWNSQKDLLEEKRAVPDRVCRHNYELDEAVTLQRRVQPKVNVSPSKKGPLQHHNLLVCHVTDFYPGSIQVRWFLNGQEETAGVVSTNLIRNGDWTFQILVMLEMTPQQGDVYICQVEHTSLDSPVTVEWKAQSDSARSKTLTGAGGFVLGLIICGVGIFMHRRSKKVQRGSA

[3] = target: T3, HLA-DP DPA1*02:01/DPB1*05:01 (Homo sapiens, UniProt P04440+P20036, A65V/A84E/F191V/F64L/G113D/G114E/K142R/L158P/M116V/M62Q/P115A/Q81R/R125K/T114A/T199I/T259P/V234M)
T3 sequence (P20036 29-260 A42M/M62Q/Q81R/T114A/K142R/L158P/F191V/T259P): T1 sequence (P20036 29-260) with A14M, M34Q, Q53R, T86A, K114R, L130P, F163V, T231P
T3 sequence (P04440 30-258 F64L/A65V/A84E/G113D/G114E/P115A/M116V/R125K/T199I/V234M): T2 sequence (P04440 30-258 L37V/F38Y/G40L/A65V/A84D/A85E/E86D/I94L/M105V/G113D/G114E/P115A/M116V/R125K/T199I) with V8L, Y9F, L11G, F35L, D55E, E56A, D57E, L65I, V76M, V205M

[4] = read-out: Binding capacity/IC50 (nM) DRB1*03:01
[5] = read-out: Binding capacity/IC50 (nM) DRB1*04:05
[6] = read-out: Binding capacity/IC50 (nM) DRB1*09:01
[7] = read-out: Binding capacity/IC50 (nM) DRB1*11:01
[8] = read-out: Binding capacity/IC50 (nM) DRB1*13:02
[9] = read-out: Binding capacity/IC50 (nM) DRB5*01:01
[10] = read-out: Binding capacity/IC50 (nM) DPA1*01:03 DPB1*02:01
[11] = read-out: Binding capacity/IC50 (nM) DPA1*02:01 DPB1*05:01

Sequence of HLA-DR DRB1*03:01 (P01903 26-254 limits assumed, other chains not shown): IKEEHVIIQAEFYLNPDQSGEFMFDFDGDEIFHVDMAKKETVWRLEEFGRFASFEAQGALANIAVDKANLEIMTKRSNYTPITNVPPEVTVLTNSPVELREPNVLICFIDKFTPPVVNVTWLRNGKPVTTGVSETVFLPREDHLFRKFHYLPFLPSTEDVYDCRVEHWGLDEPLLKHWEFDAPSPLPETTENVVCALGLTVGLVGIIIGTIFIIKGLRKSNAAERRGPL
Sequence of HLA-DR DRB1*11:01 (P01903 26-254 limits assumed, other chains not shown): as above
Sequence of HLA-DR DRB3*02:02 (P01903 26-254 limits assumed): as the sequence (P01903 26-254 limits assumed, other chains not shown) above
Sequence of HLA-DR DRB3*02:02 (P79483 30-266 R40L/Y55F/D57E/Y59H/F66Y/L67A/T80R/V86D/S89Y/R103Q/A212P/R218S limits assumed): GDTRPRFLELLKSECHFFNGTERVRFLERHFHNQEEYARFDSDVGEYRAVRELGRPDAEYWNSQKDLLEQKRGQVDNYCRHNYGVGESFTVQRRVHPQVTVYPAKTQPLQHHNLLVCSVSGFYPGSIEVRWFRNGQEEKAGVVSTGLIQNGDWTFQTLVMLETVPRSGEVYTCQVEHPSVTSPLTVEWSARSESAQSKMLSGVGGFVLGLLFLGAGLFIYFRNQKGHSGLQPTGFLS
Sequence of HLA-DR DRB1*13:02 (P01903 26-254 limits assumed, other chains not shown): as the sequence (P01903 26-254 limits assumed, other chains not shown) above

Molecule	IC50 (HLA-DR DRB1*03:01; [4]) [nM]	IC50 (HLA-DR DRB1*04:05; [5]) [nM]	IC50 (HLA-DR DRB1*09:01; [6]) [nM]	IC50 (HLA-DR DRB1*11:01; [7]) [nM]	IC50 (HLA-DR DRB1*13:02; [8]) [nM]	IC50 (HLA-DR DRB3*01:01) [nM]	IC50 (HLA-DR DRB3*02:02) [nM]	IC50 (HLA-DR DRB5*01:01; [9]) [nM]	IC50 [1, 10] [nM]	IC50 [2] [nM]	IC50 (HLA-DR DRB1*15:01) [nM]	IC50 [3, 11] [nM]	further results
CC[C@H](C)[C@H](NC(=O)[C@@H](NC(=O)[C@H](CCCCN)NC(=O)[C@@H](NC(=O)[C@@H]1CCCN1C(=O)[C@H](Cc1c[nH]c2ccccc12)NC(=O)[C@H](CCCNC(=N)N)NC(=O)CNC(=O)[C@H](C)NC(=O)[C@H](CC(C)C)NC(=O)[C@H](CCCCN)NC(=O)[C@H](CC(C)C)NC(=O)[C@@H](NC(=O)[C@H](Cc1ccccc1)NC(=O)[C@H](Cc1ccc(O)cc1)NC(=O)[C@H](C)NC(=O)[C@@H](NC(=O)[C@@H](N)CCC(=O)O)[C@@H](C)O)[C@@H](C)CC)C(C)C)C(C)C)C(N)=O [integrase(96-113)]	224	629	390	27	4410	583	7470	4.4	697	1020			IC50 (HLA-DR DRB1*15:01; read-out: Binding capacity/IC50 (nM) DRB1*15:01): 284 nM; IC50 [3]: 621 nM
CC[C@H](C)[C@H](NC(=O)[C@H](CCCCN)NC(=O)[C@H](CCC(N)=O)NC(=O)[C@@H](NC(=O)[C@H](C)NC(=O)[C@H](CCC(=O)O)NC(=O)[C@@H](N)[C@@H](C)O)C(C)C)C(=O)N[C@@H](C)C(=O)N[C@H](C(=O)N[C@@H](CCC(=O)O)C(=O)N[C@@H](CO)C(=O)N[C@H](C(=O)N[C@H](C(=O)N[C@H](C(=O)N[C@@H](Cc1c[nH]c2ccccc12)C(=O)NCC(=O)N[C@@H](CCCCN)C(=O)N[C@H](C(=O)N1CCC[C@H]1C(=O)N[C@@H](CCCCN)C(=O)N[C@@H](Cc1ccccc1)C(=O)N[C@@H](CCCNC(=N)N)C(=O)N[C@@H](CC(C)C)C(N)=O)[C@@H](C)O)[C@@H](C)CC)C(C)C)[C@@H](C)CC)[C@@H](C)O [RT(369-391)]	287	2630	310	329	1290	6230	8840	68	2210	5360	447	154	
VVIQDNSDIKVVPRRKAKII-NH2 [integrase(249-268)]						2650	4530			350	139	329	IC50 (HLA-DR DRB1*03:01): 90 nM; IC50 (HLA-DR DRB1*04:05): 6080 nM; IC50 (HLA-DR DRB1*09:01): 7040 nM; IC50 (HLA-DR DRB1*11:01): 28 nM; IC50 (HLA-DR DRB1*13:02): 5420 nM; IC50 (HLA-DR DRB5*01:01): 46 nM; IC50 [1]: 7420 nM
